The values that follow come from patent US20090258869A1, “METHODS AND COMPOUNDS FOR TREATMENT OR PREVENTION OF SUBSTANCE-RELATED DISORDERS” (The Regents of the University of California, priority 2008, published 2009).

The conditions of data set [1]: general statement, no test described; cited from earlier work.
Data set [2] relates to Tyrosine hydroxylase (TH). The experiment in a line: TH protein levels (immunoreactivity) by Western blot in ethanol-treated SH-SY5Y cells. It counts as cell-based, human. The protocol: (§1) Cell culture. […] MEM nonessential amino acid solution (Invitrogen).
(§2) Treatments. Cells were treated with ethanol for 12-48 h in low serum media by replacing the media with ethanol every 12 h. […] PI-PLC was incubated with cells at a concentration of 0.3 u/ml for 1 h as described previously (1). Anti-GDNF neutralizing antibodies were dissolved in PBS and were used at a concentration of 10 μg/ml.
(§3) Western blot and immunoprecipitation. Cells were collected and lysed in RIPA buffer plus protease and phosphatase inhibitor cocktails for Western blot and immunoprecipitation as described previously (1,30). Briefly, 15 μg of each homogenate was subjected to an SDS-PAGE gel and blotted on a nitrocellulose membrane for Western blot analysis with anti-TH antibody or other primary antibodies, followed by reprobing with anti-Actin antibody. Alternatively, 500 μg of each homogenate was incubated with 5 μg of anti-TH, anti-HSP90 or anti-Akt antibodies in TBS-T buffer overnight at 4° C.1 followed by a 2-h incubation with Protein G agarose beads. Immunoprecipitates were separated on an SDS-PAGE gel for Western blot analysis.
(§4) Quantification and statistical analysis.
A general note: Immunoblotting shows a protein as a band on a membrane.

Data set [3] concerns GDNF gene expression. The settings on record: in vitro in SH-SY5Y cells and in the midbrain region containing the VTA in vivo; previously reported; cited from earlier work.
Data set [4] has as its system Tyrosine hydroxylase (TH). The experiment in a line: Pulse-chase analysis of 35S-labeled TH protein stability in SH-SY5Y cells. It counts as cell-based, human. On the procedure:
as §1
Pulse-chase analysis. 24 h after ethanol treatment, cells were labeled following a pulse-chase procedure as described previously (31) with modifications. Briefly, cells were incubated with methionine/cystine-free DMEM (Invitrogen) containing 1% dialyzed FBS for 1 h and then labeled in the Met/Cysfree medium containing 25 μCi of Amersham Redivue Pro-Mix L-[35S] in vitro Cell Labeling Mix per ml for 3 h. Dialysis of FBS was performed against the Met/Cys-free medium overnight. After labeling, cells were washed twice with the normal medium and chased in the normal medium without ethanol for 2-8 h before homogenizing as described above. Homogenates were centrifuged and protein concentrations of the supernatants were determined. An equal amount of protein from each sample was immunoprecipitated with anti-TH antibody and separated by electrophoresis on an 8% SDS gel. Autoradiography was performed by exposure of the dried gels to Amersham Storage Phosphor Screen and visualization of radioactive signals using the Typhoon 9410 Variable Mode Imager (GE Healthcare).
as §4

The subject of data set [5] is TH-Hsp90 association. The data set is described as follows: Co-immunoprecipitation of TH with Hsp90 in SH-SY5Y cells. It is filed as cell-based, human. As to conditions: 100 mM ethanol 24 h.
Protocol: Treatments. […] PI-PLC was incubated with cells at a concentration of 0.3 u/ml for 1 h as described previously (1). Anti-GDNF neutralizing antibodies were dissolved in PBS and were used at a concentration of 10 μg/ml.
The subject of data set [6] is Hsp90. The data set is described as follows: Hsp90 protein levels by Western blot in SH-SY5Y cells. It counts as cell-based, human. The protocol: as §1, §2, §3, §4
In data set [7] the test system is TH mRNA. The settings on record: 100 mM ethanol 12 h or 24 h.
Data set [8] relates to Akt kinase and Hsp90 association. As to conditions: 100 mM ethanol 24 h.
Data set [9] deals with animals. As to conditions: literature; cited from earlier work.
[10] abbreviates: 100 mM ethanol 24 h, 25 ng/ml GDNF added for the last 12 h.

For `COC1=C2C[C@@H](C)C[C@H](OC)[C@H](O)[C@@H](C)/C=C(\C)[C@H](OC(N)=O)[C@@H](OC)/C=C\C=C(/C)C(=O)NC(=CC1=O)C2=O` [GA, Geldanamycin], in [1], the water solubility result is on record as “less than ideal”.
Consider ibogaine [reference compound], for which the “ethanol induced increases in TH levels” value in data set [2] (100 mM ethanol 24 h, 10 μM ibogaine added for the last 12 h) is reported as “inhibited”. For the same molecule, in [3], the GDNF gene expression result was “increases”.
Consider `C[C@@H]1C[C@@H]([C@H](O)CC2CC(=O)NC(=O)C2)C(=O)[C@@H](C)C1` [cycloheximide, reference compound], for which the “ethanol-mediated increases in TH protein levels” value in data set [2] (100 mM ethanol 24 h, 30 μg/ml CHX for the last 12 h) is “did not inhibit”.
`CO[C@H]1/C=C\C=C(/C)C(=O)NC2=CC(=O)C(NCCN(C)C)=C(C[C@@H](C)C[C@H](OC)[C@H](O)[C@@H](C)/C=C(\C)[C@@H]1OC(N)=O)C2=O` [17-DMAG, 17-(2 dimethylaminoethyl)amino-17-desmethoxy-geldanamycin]: in data set [1], the water solubility result is given as “more soluble”.
`CCO` [ethanol]: the “quantity of 35S-labeled TH protein at all points in the chase time course” value in [4] (100 mM ethanol 24 h before pulse-chase, compared to control) is “increase”. Besides, the “immunoreactivity of TH” value in data set [2] (10 mM ethanol, 24 h) is reported as “significant increase”. Also, the “duration of ethanol-induced increase in TH protein levels” value in [2] (100 mM ethanol 24 h, detected 24 h after ethanol washout) was “long-lasting”. Besides, the TH protein levels result in [2] (100 mM ethanol, after 24 h and 48 h of exposure) is “increase”. For the same molecule, the “increase in TH protein levels, dependence on ethanol concentration” value in [2] (different concentrations of ethanol, 24 h) is listed as “dose-dependent manner”. In addition, in data set [5], the “association of TH with Hsp90” value is reported as “induced”. The “protein level of Hsp90” value in [6] (100 mM ethanol alone, 12 h or 24 h) is “did not alter”. For the same molecule, in data set [7], the “TH mRNA” value was “did not increase”. For the same molecule, in data set [8], the “association between Akt kinase and Hsp90” value is recorded as “did not alter”.
On to `O=C1CC[C@@]2(O)[C@H]3Cc4ccc(O)c5c4[C@@]2(CCN3CC2CC2)[C@H]1O5` [Naltrexone, naltrexone], for which the “ethanol consumption in animal studies” value in data set [9] is “decrease”.

B1: GDNF: Recombinant human GDNF polypeptide (glial cell line derived neurotropic factor) from R&D Systems (protein, UniProt P39905 78-211, looked up)
Glial cell line-derived …: SPDKQMAVLPRRERNRQAAAANPENSRGKGRRGQRGKNRGCVLTAIHLNVTDLGLGYETKEELIFRYCSGSCDAAETTYDKILKNLSRNRRLVSDKVGQACCRPIAFDDDLSFLDDNLVYHILRKHSAKRCGCI
Take B1: the “quantity of 35S-labeled TH at all points on the chase time course” value in data set [4] (setting [10]) is given as “downregulates”. In addition, the “ethanol-mediated increase in TH levels” value in [2] (setting [10]) was “reversed”. For the same molecule, the “ethanol-mediated association of Hsp90 with TH” value in data set [5] (25 ng/ml GDNF added for the last 12 h) is “reversed”. The Hsp90 immunoreactivity result in [6] (setting [10]) is recorded as “not due to alteration”.
